Assay: Binding affinity to Hsp70 nucleotide binding domain in human BT474 cells

IC50: 10.4 µM
SMILES: N#Cc1ccc(COC[C@H]2O[C@@H](n3c(NCc4ccc(Cl)c(Cl)c4)nc4c(N)ncnc43)[C@H](O)[C@@H]2O)cc1 [adenosine-derived inhibitor (Grp78), 13]

Reference: BindingDB's records for doi:10.1021/jm100342z (Vernalis R&D, 2010)
